How the values were obtained:
Test in all cases: radiometric filter-binding kinase assay, Kinase HotSpot
Conditions in all cases: compound 0.5 µM; ATP 10 µM
[1] = molecular target: CDK1 CCNA2 (human) (UniProt P06493+P20248)
[2] = molecular target: BTK (human) (UniProt Q06187)
[3] = molecular target: PRKX (human) (UniProt P51817)
[4] = molecular target: TYRO3 (human) (UniProt Q06418)
[5] = molecular target: SRPK3 (human) (UniProt Q9UPE1)
[6] = molecular target: PLK1 (human) (UniProt P53350)
[7] = molecular target: CAMK1D (human) (UniProt Q8IU85)
[8] = molecular target: CSNK1G3 (human) (UniProt Q9Y6M4)
[9] = molecular target: TAOK1 (human) (UniProt Q7L7X3)
[10] = molecular target: NTRK2 (human) (UniProt Q16620)
[11] = molecular target: CDK4 CCND3 (human) (UniProt P30281+P11802)
[12] = molecular target: SLK (human) (UniProt Q9H2G2)
[13] = molecular target: ADRBK1 (human) (UniProt P25098)
[14] = molecular target: CDK1 CCNB1 (human) (UniProt P06493+P14635)
[15] = molecular target: PRKCI (human) (UniProt P41743)
[16] = molecular target: MAP3K14 (human) (UniProt Q99558)
[17] = molecular target: STK33 (human) (UniProt Q9BYT3)
[18] = molecular target: SIK2 (human) (UniProt Q9H0K1)
[19] = molecular target: MATK (human) (UniProt P42679)
[20] = molecular target: CAMK1 (human) (UniProt Q14012)
[21] = molecular target: CDC42BPA (human) (UniProt Q5VT25)
[22] = system: PRKCQ (human), Q04759 [P330L]
[23] = molecular target: PKN1 (human) (UniProt Q16512)
[24] = molecular target: TBK1 (human) (UniProt Q9UHD2)
[25] = molecular target: PLK3 (human) (UniProt Q9H4B4)
[26] = molecular target: EPHA5 (human) (UniProt P54756)
Chain of EPHA5 (human) (P54756 whole entry, looked up): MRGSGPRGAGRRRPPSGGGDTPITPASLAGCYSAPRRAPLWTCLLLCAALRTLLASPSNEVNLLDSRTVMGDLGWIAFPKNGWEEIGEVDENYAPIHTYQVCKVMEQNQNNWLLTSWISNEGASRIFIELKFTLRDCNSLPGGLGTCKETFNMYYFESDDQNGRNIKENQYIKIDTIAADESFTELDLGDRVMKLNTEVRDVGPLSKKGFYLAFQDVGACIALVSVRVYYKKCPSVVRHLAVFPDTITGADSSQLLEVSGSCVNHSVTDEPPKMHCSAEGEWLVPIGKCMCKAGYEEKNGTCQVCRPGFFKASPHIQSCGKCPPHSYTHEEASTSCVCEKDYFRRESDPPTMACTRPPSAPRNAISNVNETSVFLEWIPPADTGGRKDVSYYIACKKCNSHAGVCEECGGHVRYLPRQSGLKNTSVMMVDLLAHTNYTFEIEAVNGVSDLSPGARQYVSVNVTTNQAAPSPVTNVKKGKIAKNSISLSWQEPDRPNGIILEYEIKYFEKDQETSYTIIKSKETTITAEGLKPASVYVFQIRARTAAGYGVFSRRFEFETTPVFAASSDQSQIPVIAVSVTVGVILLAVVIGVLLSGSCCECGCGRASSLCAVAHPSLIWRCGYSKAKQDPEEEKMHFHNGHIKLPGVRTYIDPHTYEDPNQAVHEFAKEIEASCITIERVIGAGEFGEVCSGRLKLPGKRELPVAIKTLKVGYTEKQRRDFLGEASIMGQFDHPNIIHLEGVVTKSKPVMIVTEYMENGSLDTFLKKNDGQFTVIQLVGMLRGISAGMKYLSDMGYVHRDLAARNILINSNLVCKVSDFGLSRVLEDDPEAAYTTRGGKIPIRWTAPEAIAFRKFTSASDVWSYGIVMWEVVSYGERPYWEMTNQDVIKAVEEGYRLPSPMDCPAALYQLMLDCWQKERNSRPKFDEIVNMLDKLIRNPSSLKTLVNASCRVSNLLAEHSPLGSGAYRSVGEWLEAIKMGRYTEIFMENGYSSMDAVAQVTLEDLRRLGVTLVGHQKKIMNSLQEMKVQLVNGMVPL

[27] = molecular target: BRSK2 (human) (UniProt Q8IWQ3)
[28] = molecular target: IGF1R (human) (UniProt P08069)
[29] = molecular target: PAK3 (human) (UniProt O75914)
[30] = molecular target: GRK5 (human) (UniProt P34947)
[31] = molecular target: HCK (human) (UniProt P08631)
Chain of HCK (human) (P08631 whole entry, looked up): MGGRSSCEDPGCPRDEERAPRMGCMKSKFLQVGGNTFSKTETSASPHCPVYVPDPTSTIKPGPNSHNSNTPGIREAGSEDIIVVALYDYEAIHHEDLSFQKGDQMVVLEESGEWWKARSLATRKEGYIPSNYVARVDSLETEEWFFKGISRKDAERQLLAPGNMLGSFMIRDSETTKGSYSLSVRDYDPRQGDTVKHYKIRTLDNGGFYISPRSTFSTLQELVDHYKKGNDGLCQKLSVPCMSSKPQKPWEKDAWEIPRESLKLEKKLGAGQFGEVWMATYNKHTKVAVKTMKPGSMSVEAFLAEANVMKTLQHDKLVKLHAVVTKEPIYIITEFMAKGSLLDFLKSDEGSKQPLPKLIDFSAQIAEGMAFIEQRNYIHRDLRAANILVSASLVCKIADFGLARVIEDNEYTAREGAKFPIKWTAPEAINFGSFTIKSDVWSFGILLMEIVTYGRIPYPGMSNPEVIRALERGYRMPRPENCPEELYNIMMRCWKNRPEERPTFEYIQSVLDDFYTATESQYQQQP

[32] = molecular target: CDK9 CCNT1 (human) (UniProt P50750+O60563)
Chain of CDK9 CCNT1 (human) (O60563 whole entry, looked up): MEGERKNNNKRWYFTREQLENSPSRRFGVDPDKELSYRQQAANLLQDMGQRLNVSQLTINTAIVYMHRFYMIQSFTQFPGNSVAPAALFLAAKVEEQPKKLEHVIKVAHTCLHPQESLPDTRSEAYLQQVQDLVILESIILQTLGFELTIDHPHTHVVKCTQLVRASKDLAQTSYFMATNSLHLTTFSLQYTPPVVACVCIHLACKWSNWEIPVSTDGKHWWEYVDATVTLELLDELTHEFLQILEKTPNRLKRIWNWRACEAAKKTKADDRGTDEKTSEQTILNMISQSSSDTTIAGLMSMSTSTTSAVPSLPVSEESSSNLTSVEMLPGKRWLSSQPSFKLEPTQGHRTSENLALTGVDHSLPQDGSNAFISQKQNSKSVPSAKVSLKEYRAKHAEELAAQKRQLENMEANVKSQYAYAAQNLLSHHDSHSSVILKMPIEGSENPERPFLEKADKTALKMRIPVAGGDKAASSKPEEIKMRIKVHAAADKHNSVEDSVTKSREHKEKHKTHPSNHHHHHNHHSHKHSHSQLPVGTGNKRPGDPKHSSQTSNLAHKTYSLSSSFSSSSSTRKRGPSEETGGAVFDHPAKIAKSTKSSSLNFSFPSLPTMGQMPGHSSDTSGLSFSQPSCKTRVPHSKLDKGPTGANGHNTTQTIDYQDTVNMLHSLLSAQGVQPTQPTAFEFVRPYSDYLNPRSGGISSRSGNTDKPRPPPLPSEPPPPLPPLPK
Chain of CDK9 CCNT1 (human) (P50750 whole entry, looked up): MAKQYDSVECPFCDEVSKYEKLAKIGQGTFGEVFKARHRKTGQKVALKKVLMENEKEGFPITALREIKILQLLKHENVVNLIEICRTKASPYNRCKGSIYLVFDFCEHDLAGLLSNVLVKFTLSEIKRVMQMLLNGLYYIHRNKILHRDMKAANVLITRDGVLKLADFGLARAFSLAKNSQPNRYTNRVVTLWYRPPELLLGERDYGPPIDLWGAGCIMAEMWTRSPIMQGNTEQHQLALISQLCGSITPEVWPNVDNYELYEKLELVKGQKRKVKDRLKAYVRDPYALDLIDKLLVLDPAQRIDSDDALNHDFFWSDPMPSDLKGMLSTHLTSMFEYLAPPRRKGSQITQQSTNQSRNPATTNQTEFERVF

[33] = molecular target: FGFR2 (human) (UniProt P21802)
[34] = molecular target: HIPK3 (human) (UniProt Q9H422)
Chain of HIPK3 (human) (Q9H422 whole entry, looked up): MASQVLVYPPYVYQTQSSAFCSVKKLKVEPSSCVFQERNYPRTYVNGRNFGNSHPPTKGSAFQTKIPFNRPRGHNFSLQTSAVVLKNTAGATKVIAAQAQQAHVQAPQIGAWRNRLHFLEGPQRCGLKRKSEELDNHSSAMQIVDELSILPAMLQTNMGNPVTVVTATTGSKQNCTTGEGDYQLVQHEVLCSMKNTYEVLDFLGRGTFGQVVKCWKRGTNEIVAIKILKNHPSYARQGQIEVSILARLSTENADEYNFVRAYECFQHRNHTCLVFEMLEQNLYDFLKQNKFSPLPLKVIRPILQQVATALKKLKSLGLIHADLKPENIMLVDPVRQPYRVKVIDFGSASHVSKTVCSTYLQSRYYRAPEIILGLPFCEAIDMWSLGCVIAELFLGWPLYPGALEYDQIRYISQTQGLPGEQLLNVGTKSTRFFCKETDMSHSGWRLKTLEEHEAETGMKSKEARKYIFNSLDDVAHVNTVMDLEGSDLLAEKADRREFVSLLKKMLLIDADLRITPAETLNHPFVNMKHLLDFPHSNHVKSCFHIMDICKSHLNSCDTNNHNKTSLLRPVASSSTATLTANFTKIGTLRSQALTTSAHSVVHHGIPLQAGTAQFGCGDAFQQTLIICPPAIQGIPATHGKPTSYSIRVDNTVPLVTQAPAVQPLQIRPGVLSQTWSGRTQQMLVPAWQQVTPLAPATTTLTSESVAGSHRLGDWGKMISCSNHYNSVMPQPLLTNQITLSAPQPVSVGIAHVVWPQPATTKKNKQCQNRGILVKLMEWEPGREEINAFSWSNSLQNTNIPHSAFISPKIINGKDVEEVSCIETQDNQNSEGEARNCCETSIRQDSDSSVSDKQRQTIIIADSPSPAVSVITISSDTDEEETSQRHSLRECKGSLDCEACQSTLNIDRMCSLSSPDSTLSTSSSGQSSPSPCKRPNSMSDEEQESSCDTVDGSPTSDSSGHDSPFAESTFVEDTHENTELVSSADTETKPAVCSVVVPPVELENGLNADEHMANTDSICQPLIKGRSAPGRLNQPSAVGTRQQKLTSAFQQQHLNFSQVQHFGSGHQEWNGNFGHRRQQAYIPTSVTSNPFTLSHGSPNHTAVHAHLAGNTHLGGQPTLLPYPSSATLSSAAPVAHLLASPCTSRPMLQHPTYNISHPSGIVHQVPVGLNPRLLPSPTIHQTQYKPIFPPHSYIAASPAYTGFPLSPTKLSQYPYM

[35] = molecular target: CDK6 CCND3 (human) (UniProt P30281+Q00534)
[36] = molecular target: SYK (human) (UniProt P43405)
[37] = molecular target: STK17A (human) (UniProt Q9UEE5)
[38] = molecular target: RPS6KA5 KD2 (human) (UniProt O75582)
[39] = molecular target: CSNK1G2 (human) (UniProt P78368)
[40] = molecular target: INSR (human) (UniProt P06213)
[41] = molecular target: TGFBR2 (human) (UniProt P37173)

Chain of PRKX (human) (P51817 whole entry, looked up): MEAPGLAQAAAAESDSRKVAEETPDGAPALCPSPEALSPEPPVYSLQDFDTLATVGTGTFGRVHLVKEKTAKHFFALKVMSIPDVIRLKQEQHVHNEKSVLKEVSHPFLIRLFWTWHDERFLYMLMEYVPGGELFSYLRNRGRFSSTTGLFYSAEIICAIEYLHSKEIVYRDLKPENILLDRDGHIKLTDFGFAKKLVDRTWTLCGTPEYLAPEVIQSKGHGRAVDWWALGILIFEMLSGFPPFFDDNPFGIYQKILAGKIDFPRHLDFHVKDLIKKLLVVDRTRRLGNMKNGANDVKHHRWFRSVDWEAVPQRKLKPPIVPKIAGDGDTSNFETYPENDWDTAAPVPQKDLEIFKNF
Chain of PLK1 (human) (P53350 whole entry, looked up): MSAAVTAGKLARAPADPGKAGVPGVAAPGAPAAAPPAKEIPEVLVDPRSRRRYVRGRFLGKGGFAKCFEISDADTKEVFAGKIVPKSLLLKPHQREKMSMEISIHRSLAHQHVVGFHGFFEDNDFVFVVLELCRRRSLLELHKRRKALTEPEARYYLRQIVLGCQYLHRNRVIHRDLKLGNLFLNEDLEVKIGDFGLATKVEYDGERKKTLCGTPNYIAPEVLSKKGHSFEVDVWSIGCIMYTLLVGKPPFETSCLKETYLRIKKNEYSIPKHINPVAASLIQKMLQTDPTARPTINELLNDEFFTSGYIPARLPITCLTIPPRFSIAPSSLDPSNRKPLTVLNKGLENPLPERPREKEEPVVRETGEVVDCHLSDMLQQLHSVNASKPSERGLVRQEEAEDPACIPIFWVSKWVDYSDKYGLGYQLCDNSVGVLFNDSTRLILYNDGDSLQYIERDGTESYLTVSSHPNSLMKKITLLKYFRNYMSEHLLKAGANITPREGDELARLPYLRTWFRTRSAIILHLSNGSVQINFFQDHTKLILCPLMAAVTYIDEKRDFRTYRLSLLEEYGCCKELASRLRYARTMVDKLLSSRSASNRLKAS

Compound: N#C/C(=C\c1ccc(O)c(O)c1)C(=O)NCc1ccccc1
- residual activity [1]: 92.8%
- residual activity [2]: 99.8%
- residual activity [3]: 99.6%
- residual activity [4]: 109%
- residual activity [5]: 93.9%
- residual activity [6]: 97.3%
- residual activity [7]: 96.4%
- residual activity [8]: 104%
- residual activity [9]: 95.1%
- residual activity [10]: 94.5%
- residual activity [11]: 98%
- residual activity [12]: 99.1%
- residual activity [13]: 96.6%
- residual activity [14]: 96.9%
- residual activity [15]: 96.4%
- residual activity [16]: 109%
- residual activity [17]: 94.9%
- residual activity [18]: 99.7%
- residual activity [19]: 86.3%
- residual activity [20]: 93%
- residual activity [21]: 99.4%
- residual activity [22]: 103%
- residual activity [23]: 97.6%
- residual activity [24]: 98.3%
- residual activity [25]: 96.1%
- residual activity [26]: 103%
- residual activity [27]: 99.3%
- residual activity [28]: 85.1%
- residual activity [29]: 101%
- residual activity [30]: 108%
- residual activity [31]: 97.5%
- residual activity [32]: 74.9%
- residual activity [33]: 98.1%
- residual activity [34]: 96.6%
- residual activity [35]: 104%
- residual activity [36]: 116%
- residual activity [37]: 98.8%
- residual activity [38]: 102%
- residual activity [39]: 106%
- residual activity [40]: 93.8%
- residual activity [41]: 111%

Compound: O=C1Nc2ccc(Br)cc2/C1=C\c1cc2c([nH]1)CCCC2
- residual activity [1]: 96.3%
- residual activity [2]: 90.5%
- residual activity [3]: 97.2%
- residual activity [4]: 104%
- residual activity [5]: 77.8%
- residual activity [6]: 102%
- residual activity [7]: 96.8%
- residual activity [8]: 103%
- residual activity [9]: 92.3%
- residual activity [10]: 43.6%
- residual activity [11]: 99.8%
- residual activity [12]: 73.4%
- residual activity [13]: 105%
- residual activity [14]: 98.5%
- residual activity [15]: 92%
- residual activity [16]: 112%
- residual activity [17]: 77.3%
- residual activity [18]: 92.7%
- residual activity [19]: 94.2%
- residual activity [20]: 98.4%
- residual activity [21]: 81.9%
- residual activity [22]: 98.4%
- residual activity [23]: 91.7%
- residual activity [24]: 66.9%
- residual activity [25]: 97.8%
- residual activity [26]: 91.3%
- residual activity [27]: 93.8%
- residual activity [28]: 74.3%
- residual activity [29]: 96.4%
- residual activity [30]: 106%
- residual activity [31]: 88.5%
- residual activity [32]: 90%
- residual activity [33]: 87.4%
- residual activity [34]: 96.7%
- residual activity [35]: 85.8%
- residual activity [36]: 90.5%
- residual activity [37]: 72.9%
- residual activity [38]: 90.3%
- residual activity [39]: 96.8%
- residual activity [40]: 85.8%
- residual activity [41]: 101%

Compound: CC(C)(C)c1cc(C=C(C#N)C#N)cc(Br)c1O
- residual activity [1]: 87.8%
- residual activity [2]: 101%
- residual activity [3]: 102%
- residual activity [4]: 110%
- residual activity [5]: 79.4%
- residual activity [6]: 92.3%
- residual activity [7]: 111%
- residual activity [8]: 85.8%
- residual activity [9]: 97.9%
- residual activity [10]: 90.9%
- residual activity [11]: 96.5%
- residual activity [12]: 94.7%
- residual activity [13]: 83.7%
- residual activity [14]: 72.6%
- residual activity [15]: 100%
- residual activity [16]: 97.3%
- residual activity [17]: 91.1%
- residual activity [18]: 115%
- residual activity [19]: 102%
- residual activity [20]: 97.5%
- residual activity [21]: 101%
- residual activity [22]: 98%
- residual activity [23]: 94.5%
- residual activity [24]: 90.2%
- residual activity [25]: 94.6%
- residual activity [26]: 106%
- residual activity [27]: 94.5%
- residual activity [28]: 96.6%
- residual activity [29]: 96.9%
- residual activity [30]: 108%
- residual activity [31]: 66.1%
- residual activity [32]: 95.4%
- residual activity [33]: 96.4%
- residual activity [34]: 98.2%
- residual activity [35]: 89.3%
- residual activity [36]: 97.6%
- residual activity [37]: 92.3%
- residual activity [38]: 108%
- residual activity [39]: 100%
- residual activity [40]: 105%
- residual activity [41]: 93.8%

— the kinase profiling compilation of Christmann-Franck et al. (2016)
